{
  "source": "patent US4291021A",
  "about": "“Novel macrolide antibiotics and preparation thereof” (Toyo Jozo Company, Ltd., priority 1978, dated 1981)",
  "key": {"[1]": {"test_system": "Staphylococcus epidermidis (s.p.-al-l)", "assay": "antibacterial spectrum, agar dilution method", "assay_type": "cell-based", "conditions": "10^8 x1"}, "solubility": {"assay": "solubility", "assay_type": "physicochemical"}, "[2]": {"test_system": "Corynebacterium diphtheriae (P.W.8)", "assay": "antibacterial spectrum, agar dilution method", "assay_type": "cell-based", "conditions": "10^8 x1"}, "[3]": {"test_system": "Klebsiella pneumoniae (ATCC 10031)", "assay": "antibacterial spectrum, agar dilution method", "assay_type": "cell-based", "conditions": "10^8 x1"}, "[4]": {"test_system": "Bacillus subtilis (ATCC 6633)", "assay": "antibacterial spectrum, agar dilution method", "assay_type": "cell-based", "conditions": "10^8 x1"}, "[5]": {"test_system": "Salmonella typhosa (E 901)", "assay": "antibacterial spectrum, agar dilution method", "assay_type": "cell-based", "conditions": "10^8 x1"}, "Serratia marcescence": {"test_system": "Serratia marcescence", "assay": "antibacterial spectrum, agar dilution method", "assay_type": "cell-based", "conditions": "10^8 x1"}, "[6]": {"test_system": "Escherichia coli (NIHJ-JC2)", "assay": "antibacterial spectrum, agar dilution method", "assay_type": "cell-based", "conditions": "E. coli NIHJ-JC2, 10^8 x1"}, "[7]": {"test_system": "Staphylococcus aureus (0127)", "assay": "antibacterial spectrum, agar dilution method", "assay_type": "cell-based", "conditions": "S. aureus 0127, 10^8 x1"}, "[8]": {"test_system": "Sarcina lutea (ATCC 9341)", "assay": "antibacterial spectrum, agar dilution method", "assay_type": "cell-based", "conditions": "10^8 x1"}, "acidic or basic nature": {"assay": "acidic or basic nature", "assay_type": "physicochemical"}, "Shigella sonney (E 33)": {"test_system": "Shigella sonney (E 33)", "assay": "antibacterial spectrum, agar dilution method", "assay_type": "cell-based", "conditions": "10^8 x1"}, "[9]": {"test_system": "Streptococcus pyogenes (1022)", "assay": "antibacterial spectrum, agar dilution method", "assay_type": "cell-based", "conditions": "S. pyogenes 1022, 10^8 x1"}, "[10]": {"test_system": "Salmonella enteritidis gertner", "assay": "antibacterial spectrum, agar dilution method", "assay_type": "cell-based", "conditions": "10^8 x1"}, "Mycoplasma gallisepticum": {"test_system": "Mycoplasma gallisepticum", "assay": "anti-mycoplasmal spectrum, agar dilution method", "assay_type": "cell-based", "conditions": "10^8 x1"}, "[11]": {"test_system": "Pseudomonas aeruginosa (IAM 1095)", "assay": "antibacterial spectrum, agar dilution method", "assay_type": "cell-based", "conditions": "10^8 x1"}, "[12]": {"test_system": "Staphylococcus aureus (MS 353 AO)", "assay": "antibacterial spectrum, agar dilution method", "assay_type": "cell-based", "conditions": "S. aureus MS 353 AO, 10^8 x1"}, "[13]": {"test_system": "Streptococcus agalactiae (1020)", "assay": "antibacterial spectrum, agar dilution method", "assay_type": "cell-based", "conditions": "S. agalactiae 1020, 10^8 x1"}, "[14]": {"test_system": "Streptococcus faecalis (1501)", "assay": "antibacterial spectrum, agar dilution method", "assay_type": "cell-based", "conditions": "S. faecalis 1501, 10^8 x1"}, "[15]": {"test_system": "Staphylococcus aureus (MS 353 C36)", "assay": "antibacterial spectrum, agar dilution method", "assay_type": "cell-based", "conditions": "S. aureus MS 353 C36, 10^8 x1"}, "Escherichia coli (B)": {"test_system": "Escherichia coli (B)", "assay": "antibacterial spectrum, agar dilution method", "assay_type": "cell-based", "conditions": "E. coli B, 10^8 x1"}, "Proteus vulgaris (OX19)": {"test_system": "Proteus vulgaris (OX19)", "assay": "antibacterial spectrum, agar dilution method", "assay_type": "cell-based", "conditions": "10^8 x1"}, "[16]": {"test_system": "Staphylococcus aureus (ATCC 6538 P)", "assay": "antibacterial spectrum, agar dilution method", "assay_type": "cell-based", "conditions": "S. aureus ATCC 6538 P, 10^8 x1"}, "Mycoplasma synoviae": {"test_system": "Mycoplasma synoviae", "assay": "anti-mycoplasmal spectrum, agar dilution method", "assay_type": "cell-based", "conditions": "10^8 x1"}, "[17]": {"test_system": "Streptococcus pyogenes (N.Y.5)", "assay": "antibacterial spectrum, agar dilution method", "assay_type": "cell-based", "conditions": "S. pyogenes N.Y.5, 10^8 x1"}, "[18]": {"test_system": "Staphylococcus aureus (0119)", "assay": "antibacterial spectrum, agar dilution method", "assay_type": "cell-based", "conditions": "S. aureus 0119, 10^8 x1"}, "[19]": {"test_system": "Shigella flexneri type 3a", "assay": "antibacterial spectrum, agar dilution method", "assay_type": "cell-based", "conditions": "10^8 x1"}, "[20]": {"test_system": "Staphylococcus aureus (MS 353)", "assay": "antibacterial spectrum, agar dilution method", "assay_type": "cell-based", "conditions": "S. aureus MS 353, 10^8 x1"}, "[21]": {"test_system": "Staphylococcus aureus (0116)", "assay": "antibacterial spectrum, agar dilution method", "assay_type": "cell-based", "conditions": "S. aureus 0116, 10^8 x1"}, "[22]": {"test_system": "Micrococcus flavus (ATCC 10240)", "assay": "antibacterial spectrum, agar dilution method", "assay_type": "cell-based", "conditions": "10^8 x1"}},
  "data": [
    {"smiles": "CC[C@H]1OC(=O)/C=C/[C@H](C)[C@@H](O[C@@H]2O[C@H](C)C[C@H](N(C)C)[C@H]2O)[C@@H](C)C[C@@H](C)C(=O)/C=C/[C@@H]2O[C@H]2[C@]1(O)CO[C@@H]1O[C@H](C)[C@@H](O)[C@@H](OC)[C@H]1OC", "note": "[A 11725 II]", "values": [
      {"measurement": "Minimum growth inhibitory concentration", "setting": "[1]", "value": 0.1, "unit": "µg/mL"},
      {"measurement": "Solubility compared with A 11725 I", "setting": "solubility; similar to A 11725 I", "value": "Similar"},
      {"measurement": "Minimum growth inhibitory concentration", "setting": "[2]", "value": 0.4, "unit": "µg/mL"},
      {"measurement": "Minimum growth inhibitory concentration", "setting": "[3]", "value": 25, "unit": "µg/mL"},
      {"measurement": "Minimum growth inhibitory concentration", "setting": "[4]", "value": 0.4, "unit": "µg/mL"},
      {"measurement": "Minimum growth inhibitory concentration", "setting": "[5]", "value": "> 100", "unit": "µg/mL"},
      {"measurement": "Minimum growth inhibitory concentration", "setting": "Serratia marcescence", "value": "> 100", "unit": "µg/mL"},
      {"measurement": "Minimum growth inhibitory concentration", "setting": "[6]", "value": "> 100", "unit": "µg/mL"},
      {"measurement": "Minimum growth inhibitory concentration", "setting": "[7]", "value": "> 100", "unit": "µg/mL"},
      {"measurement": "Minimum growth inhibitory concentration", "setting": "[8]", "value": "≤ 0.05", "unit": "µg/mL"},
      {"measurement": "Acidic or basic nature", "setting": "acidic or basic nature", "value": "Basic"},
      {"measurement": "Minimum growth inhibitory concentration", "setting": "Shigella sonney (E 33)", "value": "> 100", "unit": "µg/mL"},
      {"measurement": "Minimum growth inhibitory concentration", "setting": "[9]", "value": "> 100", "unit": "µg/mL"},
      {"measurement": "Minimum growth inhibitory concentration", "setting": "[10]", "value": "> 100", "unit": "µg/mL"},
      {"measurement": "Minimum growth inhibitory concentration", "setting": "Mycoplasma gallisepticum", "value": 0.03, "unit": "µg/mL"},
      {"measurement": "Minimum growth inhibitory concentration", "setting": "[11]", "value": "> 100", "unit": "µg/mL"},
      {"measurement": "Minimum growth inhibitory concentration", "setting": "[12]", "value": "> 100", "unit": "µg/mL"},
      {"measurement": "Minimum growth inhibitory concentration", "setting": "[13]", "value": 6.3, "unit": "µg/mL"},
      {"measurement": "Minimum growth inhibitory concentration", "setting": "[14]", "value": "> 100", "unit": "µg/mL"},
      {"measurement": "Minimum growth inhibitory concentration", "setting": "[15]", "value": 0.1, "unit": "µg/mL"},
      {"measurement": "Minimum growth inhibitory concentration", "setting": "Escherichia coli (B)", "value": 25, "unit": "µg/mL"},
      {"measurement": "Minimum growth inhibitory concentration", "setting": "Proteus vulgaris (OX19)", "value": 50, "unit": "µg/mL"},
      {"measurement": "Minimum growth inhibitory concentration", "setting": "[16]", "value": 0.2, "unit": "µg/mL"},
      {"measurement": "Minimum growth inhibitory concentration", "setting": "Mycoplasma synoviae", "value": 0.8, "unit": "µg/mL"},
      {"measurement": "Minimum growth inhibitory concentration", "setting": "[17]", "value": "≤ 0.05", "unit": "µg/mL"},
      {"measurement": "Minimum growth inhibitory concentration", "setting": "[18]", "value": "> 100", "unit": "µg/mL"},
      {"measurement": "Minimum growth inhibitory concentration", "setting": "[19]", "value": 50, "unit": "µg/mL"},
      {"measurement": "Minimum growth inhibitory concentration", "setting": "[20]", "value": 0.2, "unit": "µg/mL"},
      {"measurement": "Minimum growth inhibitory concentration", "setting": "[21]", "value": "> 100", "unit": "µg/mL"},
      {"measurement": "Minimum growth inhibitory concentration", "setting": "[22]", "value": 0.2, "unit": "µg/mL"}
    ]},
    {"smiles": "CC[C@H]1OC(=O)/C=C/[C@H](C)[C@@H](O[C@@H]2O[C@H](C)C[C@H](N(C)C)[C@H]2O)[C@@H](C)C[C@@H](C)C(=O)/C=C/C2OC2[C@@H]1CO[C@@H]1O[C@H](C)[C@@H](O)[C@@H](OC)[C@H]1OC", "note": "(stereo partly drawn) [A 11725 I]", "values": [
      {"measurement": "Minimum growth inhibitory concentration", "setting": "[1]", "value": 0.1, "unit": "µg/mL"},
      {"measurement": "Solubility in acidic water and organic solvents", "setting": "solubility; acidic water, methanol, acetone, ethyl acetate, benzene", "value": "Soluble"},
      {"measurement": "Minimum growth inhibitory concentration", "setting": "[2]", "value": 0.4, "unit": "µg/mL"},
      {"measurement": "Minimum growth inhibitory concentration", "setting": "[3]", "value": 25, "unit": "µg/mL"},
      {"measurement": "Minimum growth inhibitory concentration", "setting": "[4]", "value": 0.4, "unit": "µg/mL"},
      {"measurement": "Minimum growth inhibitory concentration", "setting": "[5]", "value": "> 100", "unit": "µg/mL"},
      {"measurement": "Minimum growth inhibitory concentration", "setting": "Serratia marcescence", "value": "> 100", "unit": "µg/mL"},
      {"measurement": "Minimum growth inhibitory concentration", "setting": "[6]", "value": "> 100", "unit": "µg/mL"},
      {"measurement": "Minimum growth inhibitory concentration", "setting": "[7]", "value": "> 100", "unit": "µg/mL"},
      {"measurement": "Minimum growth inhibitory concentration", "setting": "[8]", "value": "≤ 0.05", "unit": "µg/mL"},
      {"measurement": "Acidic or basic nature", "setting": "acidic or basic nature", "value": "Basic"},
      {"measurement": "Minimum growth inhibitory concentration", "setting": "Shigella sonney (E 33)", "value": "> 100", "unit": "µg/mL"},
      {"measurement": "Minimum growth inhibitory concentration", "setting": "[9]", "value": "> 100", "unit": "µg/mL"},
      {"measurement": "Minimum growth inhibitory concentration", "setting": "[10]", "value": "> 100", "unit": "µg/mL"},
      {"measurement": "Minimum growth inhibitory concentration", "setting": "Mycoplasma gallisepticum", "value": 0.006, "unit": "µg/mL"},
      {"measurement": "Minimum growth inhibitory concentration", "setting": "[11]", "value": "> 100", "unit": "µg/mL"},
      {"measurement": "Minimum growth inhibitory concentration", "setting": "[12]", "value": "> 100", "unit": "µg/mL"},
      {"measurement": "Minimum growth inhibitory concentration", "setting": "[13]", "value": 12.5, "unit": "µg/mL"},
      {"measurement": "Minimum growth inhibitory concentration", "setting": "[14]", "value": "> 100", "unit": "µg/mL"},
      {"measurement": "Minimum growth inhibitory concentration", "setting": "[15]", "value": "≤ 0.05", "unit": "µg/mL"},
      {"measurement": "Minimum growth inhibitory concentration", "setting": "Escherichia coli (B)", "value": 100, "unit": "µg/mL"},
      {"measurement": "Minimum growth inhibitory concentration", "setting": "Proteus vulgaris (OX19)", "value": 100, "unit": "µg/mL"},
      {"measurement": "Minimum growth inhibitory concentration", "setting": "[16]", "value": 0.2, "unit": "µg/mL"},
      {"measurement": "Minimum growth inhibitory concentration", "setting": "Mycoplasma synoviae", "value": 0.03, "unit": "µg/mL"},
      {"measurement": "Minimum growth inhibitory concentration", "setting": "[17]", "value": "≤ 0.05", "unit": "µg/mL"},
      {"measurement": "Minimum growth inhibitory concentration", "setting": "[18]", "value": "> 100", "unit": "µg/mL"},
      {"measurement": "Minimum growth inhibitory concentration", "setting": "[19]", "value": 100, "unit": "µg/mL"},
      {"measurement": "Minimum growth inhibitory concentration", "setting": "[20]", "value": 0.2, "unit": "µg/mL"},
      {"measurement": "Minimum growth inhibitory concentration", "setting": "[21]", "value": "> 100", "unit": "µg/mL"},
      {"measurement": "Minimum growth inhibitory concentration", "setting": "[22]", "value": "≤ 0.05", "unit": "µg/mL"}
    ]}
  ]
}
